In one data set the test system is p21. The conditions noted are these: cited from earlier work. The source says: P21 has also shown anti‐apoptotic activity, which could contribute to antagonizing the p53‐mediated apoptotic response.
In data set [1] the test system is SESN2, IGF1R, STAT1 mRNA in HCT116 cells. Briefly: SESN2, IGF1R, STAT1 mRNA RT-qPCR in HCT116. It is filed as cell-based, human. As to conditions: HCT116, 48 h. How it is done:
(§1) Gene expression was evaluated 48 h after treatment using quantitative real‐time PCR (7900HT Fast; Applied Biosystems, Foster City, CA, USA). RNA extraction was performed using TRIzol® Reagent (Invitrogen, Waltham, MA, USA). RNA (500/1000 ng from cells or mice, respectively) was reverse transcribed with SMART MMLV Reverse Transcriptase (Takara, Shiga, Japan) and subjected to PCR amplification using the SensiMix SYBR Lox‐ROX Kit (Meridian Bioscience, Cincinnati, OH, USA).
Background: Quantitative PCR measures a nucleic acid by following its amplification.

For a further data set, the system named is p21 mRNA in HCT116 cells. Briefly: p21 mRNA RT-qPCR in HCT116. Format: cell-based, human. The conditions noted are these: HCT116, 48 h; three independent experiments. As for the experimental part: as §1
For a further data set, the system named is p21 mRNA in LoVo cells. Briefly: p21 mRNA RT-qPCR in LoVo. Format: cell-based, human. The conditions noted are these: 48 h, three independent experiments. As for the experimental part: as §1
For data set [2], the system named is p21 mRNA in immortalized lymphoblastoid cells (LCLs) from healthy donors. Briefly: p21 mRNA RT-qPCR in lymphoblastoid cells. Format: cell-based, human. As to conditions: 48 h.
Description: (§2) Human colorectal carcinoma cells HCT116 wt‐p53 (RRID: CVCL_0291) were purchased from Sigma‐Aldrich (Darmstadt, Germany). HCT116 exon two knockout TP53 (hereafter p53^−/−) were obtained from Vogelstein's Lab, LoVo (Johns Hopkins University, Baltimore, MD, USA) (RRID: CVCL_0399) from Vitiani's lab (Istituto Superiore di Sanità, Roma, Italy). HCT116 and LoVo cells were maintained in DMEM low glucose (Sigma‐Aldrich) supplemented with 10% FBS (Gibco™, Walthman, MA, USA), 1% penicillin–streptomycin (Sigma‐Aldrich), 1% L‐glutamine (Sigma‐Aldrich) at 37 °C, 5% CO2. Lymphoblastoid cells from healthy donors (LCLs) were grown in RPMI‐1640 (Sigma‐Aldrich), supplemented with 15% FBS (Gibco™), 1% penicillin–streptomycin (Sigma‐Aldrich), 1% L‐glutamine (Sigma‐Aldrich). Primary human myoblasts (Lonza, Basel, Switzerland) were grown in SkGM‐2 medium (Lonza). Cell lines were maintained at 37 °C, 5% CO2.
as §1

Data set [3] concerns immortalized lymphoblastoid cells (LCLs) from healthy donors. Briefly: Viability assay of lymphoblastoid cells (LCLs). The conditions noted are these: 4 biological replicates, Pep3S 10 µM, Nutlin 2.5 and 10 µM. Format: cell-based, human.
The subject of a further data set is miR-34a in HCT116 cells. Briefly: miR-34a expression RT-qPCR in HCT116. It is filed as cell-based, human. The conditions noted are these: HCT116, 48 h; two independent experiments. How it is done:
(§3) For human p53 signaling pathway analysis, the RT^2 Profiler PCR Array 384 well ‘Human p53 signaling pathway’ was used, following the manufacturer's instructions (Qiagen, Venlo, The Netherlands). Differences of ≥ 1.3‐fold were used as […] criteria. The hsa‐miR‐34a expression was analyzed using the TaqMan™ MicroRNA Assay (Thermo). The results were normalized to those obtained using snRNA RNU6B. Common targets of p53 and miR‐34a were evaluated using miRGator v3.0, miRTarBase, and TargetScanHuman.

The next data set deals with miR-34a in LoVo cells. Briefly: miR-34a expression RT-qPCR in LoVo. Format: cell-based, human. The conditions noted are these: 48 h, two independent experiments. How it is done:
as §3

Data set [4] deals with p21 mRNA in shMDM4 HCT116 cells. Briefly: p21 mRNA in shMDM4 vs shLacZ HCT116. As to conditions: doxycycline-inducible shMDM4 vs shLacZ HCT116, 48 h treatment. Format: cell-based, human. How it is done:
ShMDM4 and shLacZ (as control) HCT116 (wt‐p53 and p53^−/−) cells were obtained by transfection of doxycycline‐inducible silencing plasmids using jetPRIME transfection reagent (Polyplus, Illkirch‐Graffenstaden, France). Cells were maintained in DMEM low glucose (Sigma‐Aldrich) supplemented with 10% FBS (Gibco™) and 1% penicillin–streptomycin (Sigma‐Aldrich). After 24 h, the cells were selected with […] puromycin (Sigma‐Aldrich). Silencing was induced with 1 μg·mL^−1 doxycycline.
as §1

A further data set concerns p53. As to conditions: ref [4]; cited from earlier work. The source says:
The extent to which these additional events could be attributed to the dissociated proteins MDM4 or MDM2 remains to be ascertained. Indeed, the potential persistence of MDM2 and MDM4 binding to p53 represents a unique feature of p53 reactivating molecules. […] This is probably mediated by the binding of MDM2 to p53, which, although with reduced efficiency, controls the p53 protein levels. In ad ...

In the next data set the target is human MDM2 (Homo sapiens, UniProt Q00987). Briefly: in vitro affinity to MDM2 (dissociation constant). The conditions noted are these: Scramble3S with spread ± 0.028, binding method not described.
The test system of data set [5] is human p53 pathway target genes in HCT116 cells. Briefly: RT2 Profiler PCR Array Human p53 signaling pathway, HCT116. Format: cell-based. As for the experimental part:
as §3

Data set [6] concerns p21 mRNA in HCT116 xenograft tumors. Briefly: p21 mRNA RT-qPCR in xenograft tumors. It is filed as in vivo, mouse. As to conditions: n Pep3 = 3, n Pep3S = 5. As for the experimental part:
as §1
Animal studies obtained ethical approval from the Ministry of Health (Protocol N° 79/2023‐PR) and were conducted conforming to the institutional guidelines in compliance with named Italian legislation (DL N116, GU, suppl. 40, 18‐2‐1992). Inbred BALB/c nude mice (CAnN.Cg‐Foxn1^nu/J) obtained from the CNR‐IBBC‐EMMA‐Infrafrontier animal facility were housed in two per cage in the CNR‐IBBC‐EMMA‐Infrafrontier animal house. All animals were housed under controlled lighting conditions (daily light period, 07.00–19.00 h) at 20 ± 2° C, with ad libitum access to food (Emma 23, Mucedola, Settimo Milanese, Italy) and chlorinated filtered water. […] Tumor growth was followed and analyzed by luciferase activity over time. […] Bioluminescence acquisitions were performed with a Hybrid OI/CT system (MILabs, Houten, The Netherlands), and the images were analyzed using MILABS‐OI‐PP software. […]

The conditions of data set [7]: ref [20], cited from earlier work. The source says:
To test Pep3S's tumor‐suppressive properties, we focused on colorectal cancer (CRC) cell lines. The frequency of the wild‐type (wt) p53 gene in CRC is approximately 40%, which offers a potential window for the therapeutic application of p53‐reactivating molecules. […] BIK levels were increased by Pep3S. […] To understand the molecular pathways underlying Pep3S activity, we analyzed differentially expressed genes (DEGs) by Pep3S and Pep3 compared to a mix of Scramble3 and Scramble3S in HCT116 cells using a p53‐transcriptional array containing 80 validated targets of the human p53 pat ...

A further data set has as its system HCT116 cells (wt-p53). Briefly: PrestoBlue viability assay, 2D HCT116. It is filed as cell-based, human. As to conditions: 2D HCT116, 96 h, three independent experiments.
Description: as §2
Treatments (0.1% DMSO, 10 μM all peptides, 20 μM cisplatin, 10 μM Nutlin‐3a (Sigma‐Aldrich)) were administered every other day. […]
Cell viability was monitored every other day using PrestoBlue™ HS Cell Viability Reagent (Thermo Fisher Scientific). The fluorescence signal was read at 45′ (for 2D) or 1 h (for spheroids) using a spectrophotometer plate reader (Varioskan™ LUX; Thermo Fisher Scientific). Fluorescence excitation/emission: 570/610 nm.

The subject of the next data set is human myoblasts. Briefly: Proliferation of human myoblasts. It is filed as cell-based. The conditions noted are these: healthy human myoblasts.
Description: as §2

[8] abbreviates: comparative analysis, miRGator v3.0, miRTarBase, TargetScanHuman.
The mark [9] stands for this setting: heat map of DEGs modulated by Pep3 only.

Ends that are not written are not given here.

Sequence of human MDM2 (Q00987 whole entry): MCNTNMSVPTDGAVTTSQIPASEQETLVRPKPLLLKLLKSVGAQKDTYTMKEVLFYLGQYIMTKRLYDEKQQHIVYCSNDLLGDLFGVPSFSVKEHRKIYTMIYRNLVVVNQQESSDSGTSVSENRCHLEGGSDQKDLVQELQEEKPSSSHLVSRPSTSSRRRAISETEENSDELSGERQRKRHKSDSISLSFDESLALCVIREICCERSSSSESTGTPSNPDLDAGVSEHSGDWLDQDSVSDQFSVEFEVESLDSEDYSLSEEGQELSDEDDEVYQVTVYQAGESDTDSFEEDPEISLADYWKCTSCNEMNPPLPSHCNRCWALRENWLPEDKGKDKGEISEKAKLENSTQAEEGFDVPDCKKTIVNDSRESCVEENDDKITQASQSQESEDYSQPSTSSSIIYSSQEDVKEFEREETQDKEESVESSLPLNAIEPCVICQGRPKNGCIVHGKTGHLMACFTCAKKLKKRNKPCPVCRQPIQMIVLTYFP

On to `Cc1ccnc(NC(c2cccc(Cl)c2Cl)c2ccc3cccnc3c2O)c1` (centres unmarked) [MMRi64], for which, in the data set on p21 (ref [21]), the p21 levels result is reported as “minimal induction of p21 followed by its strong downregulation”.

As to `COc1ccc(C2=N[C@@H](c3ccc(Cl)cc3)[C@@H](c3ccc(Cl)cc3)N2C(=O)N2CCNC(=O)C2)c(OC(C)C)c1` [Nutlin‐3a], the “levels of some p53 targets by RT-qPCR” value in data set [1] (Fig. S3C,D) was “opposite activity by upregulating the levels of some of these targets”. For the same compound, the “SESN2 mRNA level” value in data set [1] (two independent experiments) is recorded as “strong upregulation of SESN2”. For the same compound, the “p21 mRNA levels” value in the data set with p21 mRNA in HCT116 cells and in the data set with p21 mRNA in LoVo cells was “strongly induced p21 expression” throughout. Also, the p21 levels result in [2] is reported as “highly potent”. Besides, the cell proliferation entry in data set [3] is “highly potent”. In addition, the miR-34a levels entry with miR-34a in HCT116 cells and in the data set with miR-34a in LoVo cells was “induced miR‐34a expression” throughout. The “effect of MDM4 silencing on p21 regulation” value in [4] was “ineffective in the upregulation mediated by Nutlin‐3a”. In addition, the p53 levels result with p53 is “increase in p53 levels”.

As for `OCc1ccc(-c2ccc(-c3ccc(CO)s3)o2)s1` [RITA], in the data set on p21 (ref (43)), the p21 protein levels result is recorded as “caused the downregulation of p21 protein levels”.

A word on the Kd: it is the constant that tells how readily two partners part at equilibrium. The low end stands for a tighter complex, the high end for a looser complex. Broadly, the IC50 is the concentration needed to halve the response being measured. Turning to Ac-KEIQLVIKVFIA-NH2 [Pep3], binding on human MDM2 was characterised by a dissociation constant (Kd) of 0.245 ± 0.029 nM. Besides, the “shared DEGs varying significantly between Pep3 and Pep3S” value in data set [5] (HCT116) is given as 11/16. Further, the “p21 levels in p53 array” value in data set [5] (HCT116, p53 array) was “not significantly altered”. Besides, in [5] (setting [8]), the “downregulated DEGs that are miR-34a targets, common to both peptides” value is 8 of the 10 and the “uniquely downregulated DEGs that are miR-34a targets” value is recorded as 4/7. Further, in data set [5] (setting [9]), the ADGRB1 expression worked out at 0.64, the BAX expression was determined as 0.55, the EGFR expression was found to be 0.50 and the FASLG expression is given as 3.64. In [5] (setting [9]), the MCL1 expression came to 0.59, the NFKB1 expression is given as 0.51, the PRKCA expression was 0.53 and the PTEN expression was determined as 0.59. The “DEGs unique to the peptide” value in data set [5] (vs Scramble mix, HCT116) is reported as 8/33. In [1] (SESN2, IGF1R, STAT1, two independent experiments), the “DEG mRNA levels by RT-qPCR” value is on record as “confirmed the downregulation of some of these DEGs”. For the same compound, in the data set with p21 mRNA in HCT116 cells, the “p21 mRNA levels” value is “Although less severe, Pep3 caused a similar decrease”. Moreover, in the data set on p21 mRNA in LoVo cells, the “p21 mRNA levels” value is on record as “Although less severe, Pep3 caused a similar decrease”. Besides, in data set [6], the “p21 mRNA levels” value is reported as “Although less severe, Pep3 caused a similar decrease”. In addition, in data set [7] (PIG3 and BIK), the “mediators of pro-apoptotic activity” value was “mediated by the activation of the pro‐oxidant p53‐targets PIG3 and BIK”. Moreover, the IC50 in data set [7] (compared with Pep3S IC50, cell line not given) was 10000 nM. Besides, the “pro-apoptotic activity linked to oxidative stress” value in [7] was “linked to the activation of an oxidative stress response”.

For the compound KVFIA [Pep3S], the dissociation constant (Kd) at human MDM2 was 0.152 ± 0.007 nM. Moreover, in the data set with HCT116 cells (wt-p53), 5540 nM corresponded to half-maximal inhibition (IC50). The cell proliferation result in the data set with human myoblasts is “did not alter cell proliferation”; in data set [3], “ineffective in reducing p21 levels and cell proliferation”.

On human MDM2, VAIKF [Scramble3S] returned a Kd of 0.447 nM.

The values above are taken from publication PMC12330940, “Targeting the MDM2‐MDM4 interaction interface reveals an otherwise therapeutically active wild‐type p53 in colorectal cancer” (Molecular Oncology, 2025).
